Experimental data from the CheMixHub viscosity set.

Test: xn = mol fraction of the nth substance listed

CCC#N + CS(C)=O
viscosity [mPa·s]
Conditions	298.15 K	303.15 K	308.15 K	313.15 K	318.15 K	323.15 K
101 kPa, x2 = 0.1078	0.49	0.47	0.44	0.43	0.4	0.35
101 kPa, x2 = 0.2092	0.56	0.54	0.51	0.48	0.46	0.4
101 kPa, x2 = 0.3026	0.63	0.6	0.57	0.55	0.52	0.45
101 kPa, x2 = 0.3983	0.72	0.69	0.65	0.62	0.6	0.51
101 kPa, x2 = 0.4995	0.85	0.81	0.75	0.71	0.68	0.58
101 kPa, x2 = 0.6026	1.01	0.96	0.89	0.84	0.79	0.68
101 kPa, x2 = 0.7077	1.2	1.12	1.04	0.98	0.92	0.78
101 kPa, x2 = 0.7966	1.39	1.29	1.2	1.1	1.05	0.89
101 kPa, x2 = 0.9014	1.67	1.54	1.4	1.31	1.23	1.03
101.33 kPa, x1 = 0.1009	–	1.547	–	–	–	–
101.33 kPa, x1 = 0.202	–	1.322	–	–	–	–
101.33 kPa, x1 = 0.3031	–	1.12	–	–	–	–
101.33 kPa, x1 = 0.4043	–	0.9436	–	–	–	–
101.33 kPa, x1 = 0.499	–	0.8012	–	–	–	–
101.33 kPa, x1 = 0.6002	–	0.6745	–	–	–	–
101.33 kPa, x1 = 0.7153	–	0.5619	–	–	–	–
101.33 kPa, x1 = 0.798	–	0.4937	–	–	–	–
101.33 kPa, x1 = 0.8994	–	0.4328	–	–	–	–

CCCCCCCCCCO + CS(C)=O
313 K, 101 kPa
Conditions	viscosity [mPa·s]
x2 = 0.0732	5.748
x2 = 0.2168	4.662
x2 = 0.3082	4.127
x2 = 0.3986	3.711
x2 = 0.5096	3.248
x2 = 0.5918	2.964
x2 = 0.6951	2.596
x2 = 0.8064	2.203
x2 = 0.9009	1.838

CCOC(=O)OCC + CS(C)=O
308.15 K, 101 kPa
Conditions	viscosity [mPa·s]
x2 = 0.0902	0.7
x2 = 0.1358	0.719
x2 = 0.2655	0.789
x2 = 0.3678	0.836
x2 = 0.468	0.928
x2 = 0.5579	1.006
x2 = 0.6013	1.047
x2 = 0.6456	1.093
x2 = 0.7167	1.172
x2 = 0.7783	1.249
x2 = 0.8439	1.344
x2 = 0.9239	1.487
